According to US4565811A, “Sodium salt of ursodeoxycholic sulphate” (Istituto Biologico Chemioterapico "ABC" S.p.A., priority 1983, dated 1986):
Read-outs that look alike come from different tables or passages of the source.

Columns and labels:
[1] = cited from earlier work
[2] = test system: hyperdislipidemia caused by Triton WR-1339 in the rat; assay: Action on the hyperdislipidemia caused by Triton WR-1339 in the rat; assay type: in vivo, Albinus rats (Witar); settings: for Alfa-Lipoproteins: Increase towards Group 2 / Beta-Lipoproteins: Inhibition towards Group 2 / Beta/alfa ratio: Inhibition towards Group 2 / Total cholesterol: Inhibition in comparison with Group 2 / Total lipids: Inhibition in comparison with Group 2 / Triglycerids: Inhibition in comparison with Group 2: vs Group 2 (Triton control)
Protocol: Action on the hyperdislipidemia caused by Triton WR-1339 in the rat
Albinus rats (Witar) of 300-320 g each, having been fed only with water "ad libitum" for 12 hours, were treated with US and UA, by oral route, 4 hours before and 15 hours after the administration intraperitenously of Triton WR-1339 at the dosage of 300 mg/kg in 10 ml/kg of physiologic solution at 0.9%.
US and UA dosages were 25, 50 and 100 mg/kg respectively and the rats were divided in the following groups of 10 animals each.
Group 1: Controls treated with 10 ml/kg of physiological solution at 0.9% orally.
Group 2: Controls treated with 300 mg/kg of Triton WR-1339 i.p. and 10 ml/kg of carboxy methyl cellulose (CMC) at 0.5%.
Group 3, 4 and 5: UA at 25, 50 and 100 mg/kg respectively suspended in 10 ml/kg of CMC at 0.5%.
Groups 6, 7 and 8: US at 25, 50 and 100 mg/kg respectively dissolved in 10 ml/kg of physiologic solution.
The following Tables 1 and 2 list the results of blood-tests from addominal aorta of rats sacrificed 5 hours after the last treatment: […]

[3] = known compounds; cited from earlier work
[4] = Solubility in water / acidity; assay type: physicochemical
[5] = 25 mg/kg os, Triton WR-1339 rat
[6] = 50 mg/kg os, Triton WR-1339 rat
[7] = 100 mg/kg os, Triton WR-1339 rat

SMILES: C[C@H](CCC(=O)O)[C@H]1CC[C@H]2[C@@H]3[C@@H](O)C[C@@H]4C[C@H](O)CC[C@]4(C)[C@H]3CC[C@]12C [UA, ursodeoxycholic acid, reference compound]
- Effect on cholesterol stones ([1]; bile saturated with cholesterol): prevents the formation of cholesterol stones
- Dissolution of radiotransparent stones ([1]; under suitable conditions): able to dissolve under suitable conditions the radiotransparent stones
- Alfa-Lipoproteins Average ± SD [2, 5]: 27,6 ± 9,8 mg/100 ml serum
- Beta-Lipoproteins Average ± SD [2, 5]: 221,17 ± 38,4 mg/100 ml serum
- Beta/alfa ratio Average ± SD [2, 5]: 8,95 ± 3,5 mg/100 ml serum
- Total cholesterol Average ± SD [2, 5]: 244,8 ± 34,5 mg/100 ml serum
- Total lipids Average ± SD [2, 5]: 3011,4 ± 513,6 mg/100 ml serum
- Triglycerids Average ± SD [2, 5]: 1167,14 ± 180,5 mg/100 ml serum
- Alfa-Lipoproteins: Increase towards Group 2 ([2]; 25 mg/kg os): +23,2%
- Beta-Lipoproteins: Inhibition towards Group 2 ([2]; 25 mg/kg os): -19,1%
- Beta/alfa ratio: Inhibition towards Group 2 ([2]; 25 mg/kg os): -28,2%
- Total cholesterol: Inhibition in comparison with Group 2 ([2]; 25 mg/kg os): -15,9%
- Total lipids: Inhibition in comparison with Group 2 ([2]; 25 mg/kg os): -21,1%
- Triglycerids: Inhibition in comparison with Group 2 ([2]; 25 mg/kg os): -11,0%
- Alfa-Lipoproteins Average ± SD [2, 6]: 41,7 ± 11,3 mg/100 ml serum
- Beta-Lipoproteins Average ± SD [2, 6]: 133,7 ± 60,4 mg/100 ml serum
- Beta/alfa ratio Average ± SD [2, 6]: 3,88 ± 1,73 mg/100 ml serum
- Total cholesterol Average ± SD [2, 6]: 175,47 ± 54,26 mg/100 ml serum
- Total lipids Average ± SD [2, 6]: 2517,3 ± 557,6 mg/100 ml serum
- Triglycerids Average ± SD [2, 6]: 893,6 ± 298,1 mg/100 ml serum
- Alfa-Lipoproteins: Increase towards Group 2 ([2]; 50 mg/kg os): +86,1%
- Beta-Lipoproteins: Inhibition towards Group 2 ([2]; 50 mg/kg os): -51,2%
- Beta/alfa ratio: Inhibition towards Group 2 ([2]; 50 mg/kg os): -68,8%
- Total cholesterol: Inhibition in comparison with Group 2 ([2]; 50 mg/kg os): -40,7%
- Total lipids: Inhibition in comparison with Group 2 ([2]; 50 mg/kg os): -34,1%
- Triglycerids: Inhibition in comparison with Group 2 ([2]; 50 mg/kg os): -31,9%
- Alfa-Lipoproteins Average ± SD [2, 7]: 39,64 ± 11,4 mg/100 ml serum
- Beta-Lipoproteins Average ± SD [2, 7]: 115,5 ± 58,7 mg/100 ml serum
- Beta/alfa ratio Average ± SD [2, 7]: 3,41 ± 2,29 mg/100 ml serum
- Total cholesterol Average ± SD [2, 7]: 155,2 ± 50,3 mg/100 ml serum
- Total lipids Average ± SD [2, 7]: 2241,14 ± 517,4 mg/100 ml serum
- Triglycerids Average ± SD [2, 7]: 628,8 ± 223,0 mg/100 ml serum
- Alfa-Lipoproteins: Increase towards Group 2 ([2]; 100 mg/kg os): +76,8%
- Beta/alfa ratio: Inhibition towards Group 2 ([2]; 100 mg/kg os): -72,6%
- Total cholesterol: Inhibition in comparison with Group 2 ([2]; 100 mg/kg os): -47,6%
- Total lipids: Inhibition in comparison with Group 2 ([2]; 100 mg/kg os): -41,3%
- Triglycerids: Inhibition in comparison with Group 2 ([2]; 100 mg/kg os): -52,1%
- Dose dependence of activity inhibiting the hyperdislipidemia ([2]; 25, 50 and 100 mg/kg oral, Triton WR-1339 rat): depends on the dosage
- Solubility in water [3]: pratically insoluble in water

SMILES: CC(CCC(=O)O)C1CCC2C3C(OS(=O)(=O)O)CC4CC(OS(=O)(=O)O)CCC4(C)C3CCC12C (stereo not drawn) [ursodeoxycholic O-sulphate]
- Acidity ([4]; free acid): very high acidity
- Solubility in water [4]: very soluble in water
- Solubility in water ([4]; listed as ursosulphate acid): very soluble in water with acid reaction
